Results on 22 molecules are retold here after US20220112187A1, “PYRAZOLOPYRIDINE AMINE COMPOUNDS FOR THE TREATMENT OF AUTOIMMUNE DISEASE” (Hoffmann-La Roche Inc., priority 2018, published 2022).

The test has as its target T1, human TLR7 (Homo sapiens, UniProt Q9NYK1).
T1 sequence (Q9NYK1 27-1049): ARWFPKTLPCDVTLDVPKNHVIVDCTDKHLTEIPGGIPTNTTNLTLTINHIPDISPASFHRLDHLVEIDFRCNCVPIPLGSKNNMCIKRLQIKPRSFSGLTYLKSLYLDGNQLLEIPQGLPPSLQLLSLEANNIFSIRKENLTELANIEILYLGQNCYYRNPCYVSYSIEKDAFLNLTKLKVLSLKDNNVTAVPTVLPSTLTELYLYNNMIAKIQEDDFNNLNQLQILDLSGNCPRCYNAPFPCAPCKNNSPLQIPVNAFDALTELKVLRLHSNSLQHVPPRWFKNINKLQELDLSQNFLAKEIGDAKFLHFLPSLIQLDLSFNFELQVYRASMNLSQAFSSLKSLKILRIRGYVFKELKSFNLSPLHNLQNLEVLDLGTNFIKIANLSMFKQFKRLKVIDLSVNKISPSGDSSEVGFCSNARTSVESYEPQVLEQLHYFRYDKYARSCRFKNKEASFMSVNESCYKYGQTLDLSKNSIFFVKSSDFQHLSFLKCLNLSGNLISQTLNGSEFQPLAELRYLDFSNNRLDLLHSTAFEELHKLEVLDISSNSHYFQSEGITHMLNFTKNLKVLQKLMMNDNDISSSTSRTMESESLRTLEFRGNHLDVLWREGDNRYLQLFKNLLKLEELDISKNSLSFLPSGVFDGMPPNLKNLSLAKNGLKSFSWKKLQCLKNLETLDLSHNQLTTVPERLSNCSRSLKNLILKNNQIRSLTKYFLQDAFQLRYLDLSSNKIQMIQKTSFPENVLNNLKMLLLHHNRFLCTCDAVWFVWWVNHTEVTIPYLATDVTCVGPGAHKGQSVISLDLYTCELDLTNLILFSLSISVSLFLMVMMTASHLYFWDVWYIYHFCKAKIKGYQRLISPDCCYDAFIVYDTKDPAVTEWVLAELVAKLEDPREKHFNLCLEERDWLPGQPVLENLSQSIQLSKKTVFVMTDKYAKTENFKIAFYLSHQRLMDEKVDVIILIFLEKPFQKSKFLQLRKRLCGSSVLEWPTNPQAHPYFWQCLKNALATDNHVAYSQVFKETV
Put plainly: HEK293-Blue-hTLR-7 cells assay (SEAP reporter, R848 stimulation). The test is classed as cell-based. The note with it: HEK293-Blue-hTLR7 cells, R848 ligand, 20 hrs incubation. An excerpt:
A stable HEK293-Blue-hTLR-7 cell line was purchased from InvivoGen (Cat. #: hkb-htlr7, San Diego, Calif., USA). These cells were originally designed for studying the stimulation of human TLR7 by monitoring the activation of NF-κB. A SEAP (secreted embryonic alkaline phosphatase) reporter gene was placed under the control of the IFN-β minimal promoter fused to five NF-κB and AP-1-binding sites. The SEAP was induced by activating NF-κB and AP-1 via stimulating HEK-Blue hTLR7 cells with TLR7 ligands. Therefore the reporter expression was declined by TLR7 antagonist under the stimulation of a ligand, such as R848 (Resiquimod), for incubation of 20 hrs. The cell culture supernatant SEAP reporter activity was determined using QUANTI-Blue™ kit (Cat. #: rep-qb1, Invivogen, San Diego, Ca, USA) at a wavelength of 640 nm, a detection medium that turns purple or blue in the presence of alkaline phosphatase.
HEK293-Blue-hTLR7 cells were incubated at a density of 250,000˜450,000 cells/mL in a volume of 170 μL in a 96-well plate in Dulbecco's Modified Eagle's medium (DMEM) containing 4.5 g/L glucose, 50 U/mL penicillin, […], […], 2 mM L-glutamine, 10% (v/v) heat-inactivated fetal bovine serum with addition of 20 μL test compound in a serial dilution in the presence of final DMSO at 1% and 10 μL of 20 uM R848 in above DMEM, perform incubation under 37° C. in a CO2 incubator for 20 hrs. Then 20 μL of the supernatant from each well was incubated with 180 μL Quanti-blue substrate solution at 37° C. for 2 hrs and the absorbance was read at 620˜655 nm using a spectrophotometer. The signalling pathway that TLR7 activation leads to downstream NF-κB activation has been widely accepted, and therefore similar reporter assay was modified for evaluating TLR7 antagonist.

By IC50 is commonly meant the concentration that inhibits the measured activity by half. A higher IC50 goes with weaker potency. As to `C[C@@H]1CN(c2ccc(C#N)n3nccc23)C[C@H](CN2CCC(CCN)CC2)O1` [Example 13, 4-[(2S,6R)-2-[[4-(2-aminoethyl)-1-piperidyl]methyl]-6-methyl-morpholin-4-yl]pyrazolo[1,5-a]pyridine-7-carbonitrile], the half-maximal inhibitory concentration (IC50) is 400 nM.

`C[C@@H]1CN(c2ccc(C#N)n3nccc23)C[C@H](CN2CCNC3(CC3)C2)O1` [Example 40, 4-[(2S,6R)-2-(4,7-diazaspiro[2.5]octan-7-ylmethyl)-6-methyl-morpholin-4-yl]pyrazolo[1,5-a]pyridine-7-carbonitrile] displayed an IC50 of 95 nM.

As for `C[C@@H]1CN(c2ccc(C#N)n3nccc23)C[C@H](CN2CCC3(CCNC3)C2=O)O1` (stereo partly drawn) [Example 21, 4-[(2R,6R)-2-methyl-6-[(1-oxo-2,7-diazaspiro[4.4]nonan-2-yl)methyl]morpholin-4-yl]pyrazolo[1,5-a]pyridine-7-carbonitrile], inhibition was half-maximal at 98 nM (IC50).

As to `C[C@@H]1CN(c2ccc(C#N)n3nccc23)C[C@H](CNC2CCN(C)CC2)O1` [Example 7, 4-[(2R,6S)-2-methyl-6-[[(1-methyl-4-piperidyl)amino]methyl]morpholin-4-yl]pyrazolo[1,5-a]pyridine-7-carbonitrile], the IC50 was 260 nM.

With `C[C@@H]1CN(c2ccc(C#N)n3ncc(F)c23)C[C@H](CN2CCCC3(CCNCC3)C2)O1` [Example 67, 4-[(2S,6R)-2-(2,9-diazaspiro[5.5]undecan-2-ylmethyl)-6-methyl-morpholin-4-yl]-3-fluoro-pyrazolo[1,5-a]pyridine-7-carbonitrile], the half-inhibitory concentration (IC50) was determined as 280 nM.

On to `C[C@@H]1CN(c2ccc(C#N)n3ncc(F)c23)C[C@H](CN2CCC3(CCCNC3)C2)O1` (stereo partly drawn) [Example 69, 3-fluoro-4-[(2S,6R)-2-(2,9-diazaspiro[4.5]decan-2-ylmethyl)-6-methyl-morpholin-4-yl]pyrazolo[1,5-a]pyridine-7-carbonitrile], for which the IC50 was determined as 130 nM.

Molecule `C[C@@H]1CN(c2ccc(C#N)n3nccc23)C[C@H](CN2CCC3(CCNC3)CC2)O1` [Example 19, 4-[(2S,6R)-2-(2,8-diazaspiro[4.5]decan-8-ylmethyl)-6-methyl-morpholin-4-yl]pyrazolo[1,5-a]pyridine-7-carbonitrile] returned an IC50 of 130 nM.

Turning to `C[C@@H]1CN(c2ccc(C#N)n3nccc23)C[C@H](CN2CC3CNCC3C2)O1` (stereo partly drawn) [Example 22, 4-[(2S,6R)-2-(2,3,3a,4,6,6a-hexahydro-1H-pyrrolo[3,4-c]pyrrol-5-ylmethyl)-6-methyl-morpholin-4-yl]pyrazolo[1,5-a]pyridine-7-carbonitrile], inhibition was half-maximal at 100 nM (IC50).

For `C[C@@H]1CN(c2ccc(C#N)n3ncc(F)c23)C[C@H](CN2CCCC3(CCNC3)C2)O1` (stereo partly drawn) [Example 68, 3-fluoro-4-[(2S,6R)-2-(2,7-diazaspiro[4.5]decan-7-ylmethyl)-6-methyl-morpholin-4-yl]pyrazolo[1,5-a]pyridine-7-carbonitrile], the IC50 is 230 nM.

In the case of `C[C@@H]1CN(c2ccc(C#N)n3nccc23)C[C@H](CN2CCN(C(=O)CN)CC2)O1` [Example 14, 4-[(2S,6R)-2-[[4-(2-aminoacetyl)piperazin-1-yl]methyl]-6-methyl-morpholin-4-yl]pyrazolo[1,5-a]pyridine-7-carbonitrile], the IC50 was 460 nM.

`C[C@@H]1CN(c2ccc(C#N)n3nccc23)C[C@H](CN2CCC3(CC2)CNCCO3)O1` [Example 60, 4-[(2R,6S)-2-methyl-6-(1-oxa-4,9-diazaspiro[5.5]undecan-9-ylmethyl)morpholin-4-yl]pyrazolo[1,5-a]pyridine-7-carbonitrile]: the IC50 was 100 nM.

On to `C[C@@H]1CN(c2ccc(C#N)n3nccc23)C[C@H](CN2CCCC3CNCC32)O1` (stereo partly drawn) [Example 61, 4-[(2S,6R)-2-(2,3,4,4a,5,6,7,7a-octahydropyrrolo[3,4-b]pyridin-1-ylmethyl)-6-methyl-morpholin-4-yl]pyrazolo[1,5-a]pyridine-7-carbonitrile], for which half-maximal inhibition (IC50) was put at 460 nM.

Molecule `C[C@@H]1CN(c2ccc(C#N)n3nccc23)C[C@H](CN2CC[C@H](N)[C@H](C)C2)O1` [Example 74, 4-[(2S,6R)-2-[[(3R,4S)-4-amino-3-methyl-1-piperidyl]methyl]-6-methyl-morpholin-4-yl]pyrazolo[1,5-a]pyridine-7-carbonitrile] showed an IC50 of 89 nM.

Consider `C[C@@H]1CN(c2ccc(C#N)n3nccc23)C[C@H](CN2CCC3(CCCNC3)CC2)O1` [Example 27, 4-[(2S,6R)-2-(2,9-diazaspiro[5.5]undecan-9-ylmethyl)-6-methyl-morpholin-4-yl]pyrazolo[1,5-a]pyridine-7-carbonitrile], for which the IC50 worked out at 130 nM. The IC50 values of the last two molecules are within 1.5-fold of each other.

`C[C@@H]1CN(c2ccc(C#N)n3nccc23)C[C@H](CN2CCC(N3CCCCC3)CC2)O1` [Example 16, 4-[(2R,6S)-2-methyl-6-[[4-(1-piperidyl)-1-piperidyl]methyl]morpholin-4-yl]pyrazolo[1,5-a]pyridine-7-carbonitrile]: the IC50 turned out to be 100 nM.

In turn, `C[C@@H]1CN(c2ccc(C#N)n3nccc23)C[C@H](CN2CCNCC2)O1` [Example 5, 4-[(2R,6S)-2-methyl-6-(piperazin-1-ylmethyl)morpholin-4-yl]pyrazolo[1,5-a]pyridine-7-carbonitrile] gave a half-inhibitory concentration (IC50) of 54 nM.

Regarding `C[C@@H]1CN(c2ccc(C#N)n3nccc23)C[C@H](CN2CCC3NCCC3C2)O1` (stereo partly drawn) [Example 41, 4-[(2S,6R)-2-(1,2,3,3a,4,6,7,7a-octahydropyrrolo[3,2-c]pyridin-5-ylmethyl)-6-methyl-morpholin-4-yl]pyrazolo[1,5-a]pyridine-7-carbonitrile], the IC50 was determined as 78 nM.

In turn, `C[C@@H]1CN(c2ccc(C#N)n3nccc23)C[C@H](CN2C3CCCC2CC(N)C3)O1` (stereo partly drawn) [Example 66, Exo-4-[(2S,6R)-2-[(3-amino-9-azabicyclo[3.3.1]nonan-9-yl)methyl]-6-methyl-morpholin-4-yl]pyrazolo[1,5-a]pyridine-7-carbonitrile] yielded an IC50 of 490 nM.

Turning to `C[C@@H]1CN(c2ccc(C#N)n3nccc23)C[C@H](CN2CC3(CCNC3)CC2=O)O1` (stereo partly drawn) [Example 20, 4-[(2R,6R)-2-methyl-6-[(3-oxo-2,7-diazaspiro[4.4]nonan-2-yl)methyl]morpholin-4-yl]pyrazolo[1,5-a]pyridine-7-carbonitrile], the IC50 was determined as 650 nM. The IC50 values of the last two molecules are within 1.5-fold of each other.

Turning to `C[C@@H]1CN(c2ccc(C#N)n3nccc23)C[C@H](CN2CCCC3(CCNCC3)C2)O1` [Example 32, 4-[(2S,6R)-2-(2,9-diazaspiro[5.5]undecan-2-ylmethyl)-6-methyl-morpholin-4-yl]pyrazolo[1,5-a]pyridine-7-carbonitrile], the IC50 came out at 410 nM.

`C[C@@H]1CN(c2ccc(C#N)n3nccc23)C[C@H](CN2C3CNCC2COC3)O1` [Example 57, 4-[(2R,6S)-2-methyl-6-(3-oxa-7,9-diazabicyclo[3.3.1]nonan-9-ylmethyl)morpholin-4-yl]pyrazolo[1,5-a]pyridine-7-carbonitrile]: the IC50 was found to be 73 nM. Against the preceding molecule, the IC50 is about 5.6-fold lower.

`C[C@@H]1CN(c2ccc(C#N)n3nccc23)C[C@H](CN2CC3CCC(C2)N3)O1` [Example 31, 4-[(2S,6R)-2-(3,8-diazabicyclo[3.2.1]octan-3-ylmethyl)-6-methyl-morpholin-4-yl]pyrazolo[1,5-a]pyridine-7-carbonitrile]: the IC50 was 53 nM.
